Several values for one entry are separate records, joined by “and”; a condition that tells them apart may be missing. Equal entries are not always repeated. Entries after “also recorded” stand apart in the source; their conditions may differ.
Assays:
Toxoplasma gondii = assay: Microtiter Monolayer Disruption Assay (MMDA), Toxoplasma gondii; assay type: cell-based, Toxoplasma gondii strain RH; settings: BT cells
Method: In order to determine the scope of protection provided by Ponazuril, in vitro testing was conducted. The following strains of parasites were evaluated for their sensitivity to this compound: Strain SN3 of Sarcocystis neurona; strain SF1 of Sarcocystis falcatula; strain RH of Toxoplasma gondii; and the NC-1 strain of Neospora caninum. […]
(§1) Bovine turbinate (BT) cells were used for all in vitro studies. Cells were grown to confluency in 25 cm^2 flasks in RMPI 1640 media supplemented with 10% v/v fetal bovine serum (FBS), 100 Units penicillin (G/mL), […] streptomycin/mL and 5×10^-2 mM 2-mercpatoethanol. After cell confluence was obtained, cells were maintained in the same media with reduced FBS (2% v/v). Cell cultures were incubated at 37 C. in a humidified atmosphere containing 5% carbon dioxide and 95% air.
(§2) For growth of parasites, BT cell monolayers were infected with parasites and examined with an inverted microscope for the development of lesions (cytopathic effect, "CPE") or the presence of many extracellular merozoites. Once lesions were observed, or many extracellular parasites were present, the monolayer was scraped with the tip of a 5 mL pipette and 1 to 3 drops of the merozoite-containing fluid was transferred to two flasks of fresh BT cells. Merozoites of S. neurona and S. falcatula were passaged in this manner every 5 to 10 days while the tachyzoites of T. gondii and N. caninum were passaged every 3 to 4 days.
The assay used to determine the effectiveness of Ponazuril was the Microtiter Monolayer Disruption Assay (MMDA). This assay was used to determine if the parasites or compound were toxic for BT cells. Flat bottomed 96-well microtiter plates were inoculated with BT cells and the resulting monolayers were used to determine the effects of Toltrazuril and Ponazuril on merozoite production as measured by CPE (plaque formation). […]

[1] = Passing of the blood-brain barrier in horses; assay type: in vivo; settings: after oral Toltrazuril daily for 10 days
Method: This experiment was conducted in order to determine whether triazineones such as Toltrazuril can pass the blood-brain barrier. Normal horses were divided into three groups of three horses per group. Group 1 horses received Toltrazuril administered orally as a 5% suspension at a dose level of 2.5 mg/Kg. Group 2 horses received Toltrazuril administered orally as a 5% suspension at a dose level of 5.0 mg/Kg. Group 3 horses received Toltrazuril administered orally as a 5% suspension at a dose level of 7.5 mg/Kg. The dosing was repeated daily for 10 days. Blood samples were drawn at 48, 96 and 240 hours and the concentration of Toltrazuril, Toltrazuril sulfoxide and Ponazuril in the serum was measured. Ten days after the start of the treatment (Day 10), a sample of cerebral spinal fluid was removed from each horse and the concentrations of Toltrazuril, Toltrazuril Sulfoxide and Ponazuril were again measured in these samples. The concentrations of Toltrazuril, Toltrazuril Sulfoxide and Ponazuril in the serum and cerebral spinal fluid are reported in TABLES 5a and 5b.

Sarcocystis falcatula = assay: Microtiter Monolayer Disruption Assay (MMDA), Sarcocystis falcatula; assay type: cell-based, Sarcocystis falcatula strain SF1; settings: BT cells
Method: In order to determine the scope of protection provided by Ponazuril, in vitro testing was conducted. The following strains of parasites were evaluated for their sensitivity to this compound: Strain SN3 of Sarcocystis neurona; strain SF1 of Sarcocystis falcatula; strain RH of Toxoplasma gondii; and the NC-1 strain of Neospora caninum. Ponazuril was tested at 2 concentrations (1 μg/mL and 10 μg/mL).
as §1, §2
The assay used to determine the effectiveness of Ponazuril was the Microtiter Monolayer Disruption Assay (MMDA). This assay was used to determine if the parasites or compound were toxic for BT cells. Flat bottomed 96-well microtiter plates were inoculated with BT cells and the resulting monolayers were used to determine the effects of Toltrazuril and Ponazuril on merozoite production as measured by CPE (plaque formation). Monolayers were inoculated with parasites (S. neurona or S. falcatula at a count of 50,000/well, T. gondii at a level of 10,000/well, and N. caninum at 20,000/well. All wells were inoculated with the test compound 2 hours after infection. Untreated and […] monolayer wells served as parasite controls and uninfected agent treated BT cells served as toxicity controls. Each treatment was examined in replicates of 6. Each well was visually monitored daily and the assay was stopped when 90-100% of the untreated merozoite infected cells had lysed (90-100% CPE). All wells of the plates were rinsed in Phosphate Buffered Saline (PBS) and fixed in 100% methanol for 5 minutes after which they were stained in crystal violet solution. […]

EPM-Infected Horses = assay: Treatment of naturally occurring clinical EPM in horses with Ponazuril paste (clinical score); assay type: in vivo
Method: The compound was formulated into a paste using Ponazuril as a 15% active ingredient (a.i.) as described in EXAMPLE 1. It was administered to horses already diagnosed with EPM once a day for 28 days at a dose rate between 2.5 mg/Kg and 10 mg/Kg.
Naturally occurring clinical cases of EPM were well characterized by signalment and laboratory diagnosis. The diagnosis used for incorporation of EPM-positive horses into this trial was as follows: Confirmed asymmetrical neurological deficit as determined by a standardized neurological examination, to include radiography, indicative of EPM; Positive Western Blot for Sarcocystis neurona IgG; Red Blood Cell count below 500 cells/mL; CSF indices--Total Protein<90, IgG index>0.3. AQ quotient<2.2.
Additional requirements were that the horses were not suffering from diseases other than EPM. Therefore, they had to meet the following criteria: Negative CSF (<1:4) for EHV-1; Normal serum values for Vitamin E (.2.0 μg/mL); Lack of seizure disorders; Lack of behavior disorders.
Diagnosed horses were randomly assigned to groups. Group 1 horses received the paste formulation daily at a dose rate of 5 mg/Kg whereas Group 2 horses received the paste formulation daily at a dose rate of 10 mg/Kg. The treatment dose was based on body weight. The horses were evaluated for a period of 90 days (approximately 60 days after discontinuation of treatment) in order to determine that treatment was indeed effective. The response to treatment was scored using the following system:
1) 0=complete success-clinically normal with a negative CSF; 2) 1=Deficit just detected at a normal gait; 3) 2=Deficit easily detected and exaggerated by backing, turning, swaying, jaw loin pressure and neck extension; 4) 3=Deficit very prominent on walking, Facial turning, loin pressure or neck extension; 5) 4=Stumbling, tripping and falling down spontaneously; 6) 5=Recumbent, unable to rise. An improvement of one (1) unit in the score was considered a significant improvement.

[2] = 0.1 μg/mL, read-out: Percent Inhibition of Cell Destruction, 0.1 μg/mL
[3] = individual horse, 5 mg/Kg paste daily for 28 days, score 0=complete success to 5=recumbent, listed as Toltrazuril Sulfone
[4] = individual horse, 10 mg/Kg paste daily for 28 days, score 0=complete success to 5=recumbent, listed as Toltrazuril Sulfone
[5] = sum of scores of group, 5 mg/Kg daily for 28 days
[6] = sum of scores of group, 10 mg/Kg daily for 28 days

## Cc1cc(-n2c(=O)[nH]c(=O)n(C)c2=O)ccc1Oc1ccc(S(=O)(=O)C(F)(F)F)cc1 [Ponazuril]
Toxoplasma gondii; 0.001 μg/mL, read-out: Percent Inhibition of Cell Destruction, 0.001 μg/mL
  inhibition at 0.001 µg/mL: 11%
Toxoplasma gondii; [2]
  inhibition at 0.1 µg/mL: 100%
Toxoplasma gondii; 1.0 μg/mL, read-out: Percent Inhibition of Cell Destruction, 1.0 μg/mL
  inhibition at 1 µg/mL: 100%
[1]
  crossing of the blood-brain barrier: effectively cross the blood-brain barrier; also recorded: crosses this barrier more effectively than does Toltrazuril
Sarcocystis falcatula; [2]
  inhibition at 0.1 µg/mL: 61%
Sarcocystis falcatula; 1 μg/mL, read-out: Percent Inhibition of Cell Destruction, 1 μg/mL
  inhibition at 1 µg/mL: 100%
Sarcocystis falcatula; 5.0 μg/mL, read-out: Percent Inhibition of Cell Destruction, 5.0 μg/mL
  inhibition at 5 µg/mL: 100%
Sarcocystis falcatula; 10 μg/mL, read-out: Percent Inhibition of Cell Destruction, 10 μg/mL
  inhibition at 10 µg/mL: 100%
EPM-Infected Horses; 5 mg/Kg versus 10 mg/Kg
  improvement in total scores, Group 1 versus Group 2: approximately equivalent
EPM-Infected Horses; 10 mg/Kg, treated for 28 days, improvement of 1 unit significant
  horses showing a significant improvement in clinical score by day 90: 100%
EPM-Infected Horses; either 5 mg/Kg or 10 mg/Kg
  effectiveness for the active treatment of EPM in horses: effective
EPM-Infected Horses; [3]
  clinical score, Day 28, 5 mg/Kg Dose: 1 and 2 and 0 and 3
  clinical score, Day 90, 5 mg/Kg Dose: 2 and 1 and 0 and 3
EPM-Infected Horses; [4]
  clinical score, Day 28, 10 mg/Kg Dose: 2 and 1 and 0
  clinical score, Day 90, 10 mg/Kg Dose: 1 and 0
EPM-Infected Horses; individual horse, before treatment, 5 mg/Kg paste daily for 28 days, score 0=complete success to 5=recumbent, listed as Toltrazuril Sulfone
  clinical score, Day 0, 5 mg/Kg Dose: 2 and 3
EPM-Infected Horses; individual horse, before treatment, 10 mg/Kg paste daily for 28 days, score 0=complete success to 5=recumbent, listed as Toltrazuril Sulfone
  clinical score, Day 0, 10 mg/Kg Dose: 4 and 3 and 2
EPM-Infected Horses; [5]
  TOTAL clinical score, Day 28, 5 mg/Kg Dose: 13
  TOTAL clinical score, Day 90, 5 mg/Kg Dose: 6
EPM-Infected Horses; [6]
  TOTAL clinical score, Day 28, 10 mg/Kg Dose: 15
  TOTAL clinical score, Day 90, 10 mg/Kg Dose: 4
EPM-Infected Horses; sum of scores of group, before treatment, 5 mg/Kg
  TOTAL clinical score, Day 0, 5 mg/Kg Dose: 17
EPM-Infected Horses; sum of scores of group, before treatment, 10 mg/Kg
  TOTAL clinical score, Day 0, 10 mg/Kg Dose: 19
